Key:
Format in all cases: in vivo
Lolium multiflorum Lam. = assay: Test Example 5: herbicidal effect by foliage application, plastic box (symbol K); details: 320 g/ha, 3 weeks after application
Procedure, shortened: (§1)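 Greenhouse foliar test: seedlings at 14 days, grown 25° C. to 30° C. in sterilized diluvial soil; compound applied as an aqueous dilution of an emulsion; response read 3 weeks after spraying.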

Abutilon theophrasti = assay: Test Example 5: herbicidal effect by foliage application, plastic box (symbol M); details: 320 g/ha, 3 weeks after application
Procedure, shortened: as §1

Amaranthus retroflexus = assay: Test Example 4: herbicidal effect by soil treatment (symbol N); details: application herbicide amount 320 g/ha
Procedure, shortened: (§2)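 Seeds were sown in sterilized diluvial soil, covered with about 1.5 cm of soil, and the soil surface was sprayed with a water-diluted emulsion of the compound at a predetermined rate. Plants grew in a greenhouse at 25° C. to 30° C.; effects were scored visually 3 weeks after application.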

Alopecurus myosuroides = assay: Test Example 4: herbicidal effect by soil treatment (symbol J); details: application herbicide amount 320 g/ha
Procedure, shortened: as §2

rice plant = assay: Test Example 5: effect on crop by foliage application, plastic box (symbol b); details: 320 g/ha, 3 weeks after application
Procedure, shortened: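 Seeds were sown in spots in sterilized diluvial soil held in a plastic box 21 cm × 13 cm × 7 cm deep, covered with about 1.5 cm of soil, and grown in a greenhouse at 25° C. to 30° C.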

Avena fatua = assay: Test Example 4: herbicidal effect by soil treatment (symbol I); details: application herbicide amount 320 g/ha
Procedure, shortened: as §2

Leptochloa chinensis = assay: Test Example 3: herbicidal effect by foliage application, Wagner pot (symbol D); details: application herbicide amount 320 g/ha
Procedure, shortened: (§3)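 Weeds and rice were sown in alluvial soil under 0.1–0.5 cm of standing water and grown for 14 days in a 25–30 °C greenhouse. An emulsion of the compound, diluted in water to a set dose, was sprayed evenly onto the foliage. Effect was scored against fixed criteria 3 weeks after treatment.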

Stellaria media = assay: Test Example 5: herbicidal effect by foliage application, plastic box (symbol P); details: 320 g/ha, 3 weeks after application
Procedure, shortened: as §1

Apera spica-venti = assay: Test Example 5: herbicidal effect by foliage application, plastic box (symbol L); details: 320 g/ha, 3 weeks after application
Procedure, shortened: as §1

Digitaria ciliaris [1] = assay: Test Example 5: herbicidal effect by foliage application, plastic box (symbol F); details: 320 g/ha, 3 weeks after application
Procedure, shortened: as §1

Chenopodium album = assay: Test Example 5: herbicidal effect by foliage application, plastic box (symbol O); details: 320 g/ha, 3 weeks after application
Procedure, shortened: as §1

Galium spurium = assay: Test Example 5: herbicidal effect by foliage application, plastic box (symbol Q); details: 320 g/ha, 3 weeks after application
Procedure, shortened: as §1

[2] = test system: Echinochloa crus-galli var. crus-galli; assay: Test Example 3: herbicidal effect by foliage application, Wagner pot (symbol H); details: application herbicide amount 320 g/ha
Procedure, shortened: as §3

Setaria viridis [3] = assay: Test Example 5: herbicidal effect by foliage application, plastic box (symbol G); details: 320 g/ha, 3 weeks after application
Procedure, shortened: as §1

[4] = test system: Echinochloa oryzacola Vasing.; assay: Test Example 1: herbicidal activity, application before weed generation in submerged conditions (symbol A); details: application herbicide amount 320 g/ha
Procedure, shortened: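 Greenhouse growth at 25–30 °C lasted 3 weeks after treatment, when each weed was graded 0–5 by herbicidal ratio. Treatment was a diluted emulsion applied to the water surface of 4 cm-submerged alluvial soil on the sowing day.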

Setaria viridis [5] = assay: Test Example 4: herbicidal effect by soil treatment (symbol G); details: application herbicide amount 320 g/ha
Procedure, shortened: as §2

Digitaria ciliaris [6] = assay: Test Example 4: herbicidal effect by soil treatment (symbol F); details: application herbicide amount 320 g/ha
Procedure, shortened: as §2

rapeseed = assay: Test Example 4: effect on crop by soil treatment (symbol g); details: application herbicide amount 320 g/ha
Procedure, shortened: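 Plants grew in a 25° C. to 30° C. greenhouse after spot-sowing of seeds, including beet, rapeseed, wheat and rice, into sterilized diluvial soil under roughly 1.5 cm of cover soil.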

Veronica persica = assay: Test Example 4: herbicidal effect by soil treatment (symbol R); details: application herbicide amount 320 g/ha
Procedure, shortened: as §2

Structure (SMILES)	K: Lolium multiflorum Lam., herbicidal effect grade (Lolium multiflorum Lam.)	M: Abutilon theophrasti, herbicidal effect grade (Abutilon theophrasti)	N: Amaranthus retroflexus, herbicidal effect grade (Amaranthus retroflexus)	J: Alopecurus myosuroides, herbicidal effect grade (Alopecurus myosuroides)	b: directly sowed rice plant, effect on crop grade (rice plant)	I: Avena fatua, herbicidal effect grade (Avena fatua)	herbicidal effect on D (Leptochloa chinensis), grade 0-5 (Leptochloa chinensis)	P: Stellaria media, herbicidal effect grade (Stellaria media)	L: Apera spica-venti, herbicidal effect grade (Apera spica-venti)	F: Digitaria ciliaris, herbicidal effect grade (Digitaria ciliaris [1])	O: Chenopodium album, herbicidal effect grade (Chenopodium album)	Q: Galium spurium, herbicidal effect grade (Galium spurium)	herbicidal effect on H (Echinochloa crus-galli var. crus-galli), grade 0-5 [2]	G: Setaria viridis, herbicidal effect grade (Setaria viridis [3])	Herbicidal effect grade, A: Echinochloa oryzacola Vasing. [4]	G: Setaria viridis, herbicidal effect grade (Setaria viridis [5])	F: Digitaria ciliaris, herbicidal effect grade (Digitaria ciliaris [6])	g: rapeseed, effect on crop grade (rapeseed)	R: Veronica persica, herbicidal effect grade (Veronica persica)
CON=C(C)CC1CC(O)=C(c2c(C)cc(C)cc2Br)C1=O (stereo not shown) [6-038]	5 (Herbicidal ratio of 90% or more (almost completely withered))	5 (Herbicidal ratio of 90% or more (almost completely withered))	4 (Herbicidal ratio of 70% or higher and lower than 90%)	5 (Herbicidal ratio of 90% or more (almost completely withered))	5 (Herbicidal ratio of 90% or more (almost completely withered))	2 (Herbicidal ratio of 20% or higher and lower than 40%)	5 (Herbicidal ratio of 90% or more (almost completely withered))	4 (Herbicidal ratio of 70% or higher and lower than 90%)	5 (Herbicidal ratio of 90% or more (almost completely withered))	5 (Herbicidal ratio of 90% or more (almost completely withered))	3 (Herbicidal ratio of 40% or higher and lower than 70%)	0 (Herbicidal ratio of 5% or lower (almost no effect))	5 (Herbicidal ratio of 90% or more (almost completely withered))	5 (Herbicidal ratio of 90% or more (almost completely withered))	5 (Herbicidal ratio of 90% or more (almost completely withered))	4 (Herbicidal ratio of 70% or higher and lower than 90%)	5 (Herbicidal ratio of 90% or more (almost completely withered))	5 (Herbicidal ratio of 90% or more (almost completely withered))	1 (Herbicidal ratio of 5% or higher and lower than 20%)
Cc1cc(C)c(C2=C(O)CC(CC(=O)CC3CC3)C2=O)c(C)c1 (stereo not shown) [2-026]	5 (Herbicidal ratio of 90% or more (almost completely withered))	0 (Herbicidal ratio of 5% or lower (almost no effect))	0 (Herbicidal ratio of 5% or lower (almost no effect))	3 (Herbicidal ratio of 40% or higher and lower than 70%)	5 (Herbicidal ratio of 90% or more (almost completely withered))	0 (Herbicidal ratio of 5% or lower (almost no effect))	4 (Herbicidal ratio of 70% or higher and lower than 90%)	0 (Herbicidal ratio of 5% or lower (almost no effect))	3 (Herbicidal ratio of 40% or higher and lower than 70%)	4 (Herbicidal ratio of 70% or higher and lower than 90%)	0 (Herbicidal ratio of 5% or lower (almost no effect))	0 (Herbicidal ratio of 5% or lower (almost no effect))	5 (Herbicidal ratio of 90% or more (almost completely withered))	5 (Herbicidal ratio of 90% or more (almost completely withered))	3 (Herbicidal ratio of 40% or higher and lower than 70%)	5 (Herbicidal ratio of 90% or more (almost completely withered))	5 (Herbicidal ratio of 90% or more (almost completely withered))	4 (Herbicidal ratio of 70% or higher and lower than 90%)	0 (Herbicidal ratio of 5% or lower (almost no effect))
CCOC(=O)C(C(=O)c1ccccc1)C1CC(O)=C(c2c(C)cc(C)cc2C)C1=O (stereo not shown) [2-008]	4 (Herbicidal ratio of 70% or higher and lower than 90%)	0 (Herbicidal ratio of 5% or lower (almost no effect))	0 (Herbicidal ratio of 5% or lower (almost no effect))	0 (Herbicidal ratio of 5% or lower (almost no effect))	4 (Herbicidal ratio of 70% or higher and lower than 90%)	0 (Herbicidal ratio of 5% or lower (almost no effect))	0 (Herbicidal ratio of 5% or lower (almost no effect))	0 (Herbicidal ratio of 5% or lower (almost no effect))	0 (Herbicidal ratio of 5% or lower (almost no effect))	2 (Herbicidal ratio of 20% or higher and lower than 40%)	0 (Herbicidal ratio of 5% or lower (almost no effect))	0 (Herbicidal ratio of 5% or lower (almost no effect))	0 (Herbicidal ratio of 5% or lower (almost no effect))	3 (Herbicidal ratio of 40% or higher and lower than 70%)	0 (Herbicidal ratio of 5% or lower (almost no effect))	0 (Herbicidal ratio of 5% or lower (almost no effect))	0 (Herbicidal ratio of 5% or lower (almost no effect))	0 (Herbicidal ratio of 5% or lower (almost no effect))	0 (Herbicidal ratio of 5% or lower (almost no effect))
Cc1cc(C)c(C2=C(O)CC(CC(=O)c3ccc(F)cc3)C2=O)c(C)c1 (stereo not shown) [2-032]	5 (Herbicidal ratio of 90% or more (almost completely withered))	0 (Herbicidal ratio of 5% or lower (almost no effect))	0 (Herbicidal ratio of 5% or lower (almost no effect))	5 (Herbicidal ratio of 90% or more (almost completely withered))	5 (Herbicidal ratio of 90% or more (almost completely withered))	0 (Herbicidal ratio of 5% or lower (almost no effect))	3 (Herbicidal ratio of 40% or higher and lower than 70%)	0 (Herbicidal ratio of 5% or lower (almost no effect))	5 (Herbicidal ratio of 90% or more (almost completely withered))	2 (Herbicidal ratio of 20% or higher and lower than 40%)	0 (Herbicidal ratio of 5% or lower (almost no effect))	0 (Herbicidal ratio of 5% or lower (almost no effect))	5 (Herbicidal ratio of 90% or more (almost completely withered))	5 (Herbicidal ratio of 90% or more (almost completely withered))	4 (Herbicidal ratio of 70% or higher and lower than 90%)	5 (Herbicidal ratio of 90% or more (almost completely withered))	4 (Herbicidal ratio of 70% or higher and lower than 90%)	1 (Herbicidal ratio of 5% or higher and lower than 20%)	0 (Herbicidal ratio of 5% or lower (almost no effect))
